Our source for the solubility, IC50 and microsomal CLint values is paper PMC12391391, “The balance between B55α and Greatwall expression levels predicts sensitivity to Greatwall inhibition in cancer cells” (Nature Communications, 2025).

pIC50: −log10 of the molar value.

One data set can be described thus: physchem. Also noted: aqueous solubility at pH 7.0. The settings on record: pH 7.0; buffer pH 7.0; aqueous buffer pH 7.0. The text has this:
(§1) We selected compound 1 as the lead exemplar of cluster 3 and leveraged it as a foundation for subsequent drug development (Fig. 1a). Structure-activity relationship studies and pharmacokinetic profiling produced several derivative molecules, of which compound 21 provided the best combination of outstanding inhibitory potential, low clearance in mouse microsomes and acceptable solubility (Fig. 1a–c and Supplementary Tables 1–4). […] This assessment was supported by structural modelling of the interaction between compound 21 and the active site of GWL (Fig. 1d). In further support of its GWL-targeting properties, compound 21 diminished the phosphorylation of the canonical GWL substrate ENSA(S67) in Xenopus laevis cytostatic factor (CSF) egg extract (Supplementary Fig. 2). Having satisfied the criteria of prospective GWL inhibitor, the racemic compound 21 was registered as UOS-00054604 and, for the remainder of the manuscript, is referred to as C-604.

In a further data set the target is T1, NUAK1 (Homo sapiens, UniProt O60285).
T1 sequence (O60285 1-661): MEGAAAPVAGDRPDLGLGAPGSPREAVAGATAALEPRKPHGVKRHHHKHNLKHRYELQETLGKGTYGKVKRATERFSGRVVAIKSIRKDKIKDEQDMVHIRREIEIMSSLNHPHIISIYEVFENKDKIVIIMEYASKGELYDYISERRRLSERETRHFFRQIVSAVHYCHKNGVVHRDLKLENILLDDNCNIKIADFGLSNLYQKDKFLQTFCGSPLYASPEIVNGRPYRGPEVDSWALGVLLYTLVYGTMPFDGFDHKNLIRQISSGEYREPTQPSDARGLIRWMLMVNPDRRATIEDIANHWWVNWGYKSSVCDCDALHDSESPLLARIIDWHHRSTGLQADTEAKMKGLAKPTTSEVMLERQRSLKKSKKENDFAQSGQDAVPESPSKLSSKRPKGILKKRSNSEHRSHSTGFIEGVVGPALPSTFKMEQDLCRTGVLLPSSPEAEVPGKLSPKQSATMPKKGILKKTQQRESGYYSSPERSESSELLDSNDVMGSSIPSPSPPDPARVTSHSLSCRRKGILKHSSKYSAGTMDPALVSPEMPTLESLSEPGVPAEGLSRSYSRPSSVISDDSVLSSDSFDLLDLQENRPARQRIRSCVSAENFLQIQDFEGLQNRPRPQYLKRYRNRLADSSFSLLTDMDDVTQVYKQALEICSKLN
Nature of the data set: biochemical. Also noted: LanthaScreen kinase activity assay (Thermo Fisher), dose-dependent inhibition by C-604. The settings on record: read-out: IC50 (C-604). Here is the method: (§2) To identify potential C-604 off-targets, we utilised a commercially available off-target screening service (Thermo Fisher Scientific) to assess the impact of C-604 on the in vitro activity of 100 human kinases (Supplementary Fig. 8a). Out of 100 tested targets, C-604 (1 µM) inhibited GWL (inhibition 95%) and an additional 10 kinases (inhibition ≥ 80%). […] The in vitro off-target effects of compound C-604 were determined by assessing its inhibitory potential in a panel of 100 human kinases using the LanthaScreen Kinase Activity Assay (Thermo Fisher Scientific).

The next data set has as its target MELK (Homo sapiens, UniProt Q14680). Kind of data set: biochemical. The settings on record: read-out: IC50 (C-604). Also noted: LanthaScreen kinase activity assay (Thermo Fisher), dose-dependent inhibition by C-604. Here is the method:
as §2

A short description of another data set: in vitro. Also noted: intrinsic clearance in human microsomes. The settings on record: liver microsomes; human liver microsomes; read-out: Cl (human).
From the text: as §1

MELK, sequence (Q14680 whole entry): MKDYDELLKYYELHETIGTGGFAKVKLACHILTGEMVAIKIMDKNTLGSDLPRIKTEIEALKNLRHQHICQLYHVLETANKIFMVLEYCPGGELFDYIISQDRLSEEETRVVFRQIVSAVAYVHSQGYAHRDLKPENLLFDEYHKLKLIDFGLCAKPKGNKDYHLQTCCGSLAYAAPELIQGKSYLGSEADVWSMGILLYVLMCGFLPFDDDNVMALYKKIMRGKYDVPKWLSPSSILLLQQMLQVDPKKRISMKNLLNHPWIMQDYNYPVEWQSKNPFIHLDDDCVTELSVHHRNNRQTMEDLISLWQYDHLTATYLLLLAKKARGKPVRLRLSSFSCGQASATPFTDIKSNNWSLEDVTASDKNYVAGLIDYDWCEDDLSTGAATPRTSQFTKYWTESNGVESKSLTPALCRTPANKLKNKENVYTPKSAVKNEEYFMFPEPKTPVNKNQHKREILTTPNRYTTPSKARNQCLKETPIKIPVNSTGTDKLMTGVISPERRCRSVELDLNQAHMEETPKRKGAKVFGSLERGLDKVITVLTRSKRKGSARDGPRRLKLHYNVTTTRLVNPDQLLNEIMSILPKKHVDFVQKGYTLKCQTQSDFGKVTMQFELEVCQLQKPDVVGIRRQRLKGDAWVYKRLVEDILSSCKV

Consider `CNC(=O)c1c[nH]c2ncc(-c3ccc(OCCN4CCC(c5ccccc5)C4)cc3)nc12` (racemic) [compound 21, C-604], for which the solubility in “physchem” was found to be 72 µM. The pIC50 on NUAK1 is 8.00; on MELK it was 7.77. Moreover, the microsomal CLint in the data set “in vitro” worked out at 13 µL/min/mg.

Broadly, the solubility is the concentration that dissolves in the medium under given conditions. The term pIC50 denotes −log10 of the IC50, conventionally taken in molar units.
